Read-outs that look alike come from different tables or passages of the source.
Molecular target: T1, BRD9 (Homo sapiens, UniProt Q9H8M2)
T1 sequence (Q9H8M2 1-597): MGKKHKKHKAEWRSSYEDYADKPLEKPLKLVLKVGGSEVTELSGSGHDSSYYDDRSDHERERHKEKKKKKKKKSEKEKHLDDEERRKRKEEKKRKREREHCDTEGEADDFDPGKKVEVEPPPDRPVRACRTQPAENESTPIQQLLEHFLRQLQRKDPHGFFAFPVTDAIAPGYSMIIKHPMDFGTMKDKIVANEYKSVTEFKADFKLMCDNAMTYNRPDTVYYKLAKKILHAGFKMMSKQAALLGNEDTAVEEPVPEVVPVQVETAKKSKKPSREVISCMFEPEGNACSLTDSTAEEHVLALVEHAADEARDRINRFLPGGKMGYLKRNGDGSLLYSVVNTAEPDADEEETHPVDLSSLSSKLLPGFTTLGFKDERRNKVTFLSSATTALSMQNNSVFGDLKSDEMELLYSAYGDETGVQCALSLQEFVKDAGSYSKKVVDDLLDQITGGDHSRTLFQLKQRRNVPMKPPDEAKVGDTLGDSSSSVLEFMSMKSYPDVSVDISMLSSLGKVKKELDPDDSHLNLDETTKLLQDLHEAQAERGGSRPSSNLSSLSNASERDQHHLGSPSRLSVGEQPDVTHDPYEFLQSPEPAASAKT
Test: Degradation of BRD9 (IF), immunofluorescence in MV4-11 cells, 24 hours (Assay Protocol 2)
Assay type: cell-based
Design: A suspension of MV4-11 cells (ATCC CRL-9591) was prepared; host or cells: MV4-11
Conditions: BRD9 degradation; for DC50: read-out: DC50
Description: Assay Protocol 2—Degradation of BRD9 (IF)
A suspension of MV4-11 cells (ATCC CRL-9591) was prepared in phenol red-free assay media (IMDM Thermo Scientific 21056023+10% FBS ATCC 302025) and cells were seeded at 20,000 cells per well (45 μL) in sterile black poly-d-lysine coated 384 well plates (Greiner 781948). Compounds were prepared at 1000× final concentration in DMSO, diluted 1:100 in assay media, and 5 μL compound was added to each well of the cell plate. Cells were incubated for 24 hours at 37° C. with 5% CO2. All the following incubations for immunofluorescence staining were at room temperature. 15 μL of 16% PFA was added to each well (3.7% final concentration) and the cells were fixed for 15 min then washed twice with DPBS. Cells were permeabilised with 0.1% Triton X-100 for 10 min, Triton X-100 was removed, then blocked with 1% BSA in DPBS for 1 hour. Cells were stained with 25 μL anti-BRD9 E4Q3F antibody (CST 48306) diluted 1:25600 in 1% BSA in DPBS for 2-3 hours. Wels were washed twice with DPBS then incubated with 25 μL of 1% BSA containing a 1:1000 dilution of Anti-rabbit Alexa Fluor™ 647 secondary antibody (Thero Scientific A21244) and 1 μg/mL Hoechst nuclear counter stain (Abcam ab228551) for 1 hour. Wells were washed twice with DPBS prior to imaging on a Perkin Elmer Operetta CLS with 10× air lens. Images were processed using Harmony High-Content Imaging and Analysis Software (Perkin Elmer) and the mean contrast ratio of Alexa Fluor™ 647 in central nuclei was used to quantify BRD9 protein levels. Data was further analysed using Dotmatics software and % BRD9 remaining was calculated by normalisation to average data from high and low control wells (cells treated with DMSO or 100 nM CFT-8634 respectively).

[1] = MV4-11, Assay protocol 2, read-out: Dmax

Row | Compound | DC50 (Assay protocol 2) | Dmax [1] | Dmax (Assay protocol 2)
1 | COc1ccc(F)c(/C=C(\C#N)C(=O)N2CCc3c(CN4CCN(Cc5c(OC)cc(-c6cn(C)c(=O)c(C)c6C)cc5OC)CC4)cccc3C2C)c1 (mixture of isomers) [Compound B93, (E/Z)-2-(5-((4-(2,6-dimethoxy-4-(1,4,5-trimethyl-6-oxo-1,6-dihydropyridin-3-yl)benzyl)piperazin-1-yl)methyl)-1-methyl-1,2,3,4-tetrahydroisoquinoline-2-carbonyl)-3-(2-fluoro-5-methoxyphenyl)acrylonitrile] | 1.25 to 10 nM | 40 to 70% | 
2 | COc1cc(-c2cn(C)c(=O)c(C)c2C)cc(OC)c1CN1CCC(COc2cccc3c2CCN(C(=O)/C(C#N)=C/c2cccc(Br)n2)C3C)CC1 (mixture of isomers) [Compound B95, (E/Z)-3-(6-bromopyridin-2-yl)-2-(5-((1-(2,6-dimethoxy-4-(1,4,5-trimethyl-6-oxo-1,6-dihydropyridin-3-yl)benzyl)piperidin-4-yl)methoxy)-1-methyl-1,2,3,4-tetrahydroisoquinoline-2-carbonyl)acrylonitrile] | < 1.25 nM | 70 to 75% | 
3 | COc1cc(-c2cn(C)c(=O)c3[nH]ncc23)cc(OC)c1CN1CCN(Cc2cccc3c2CCN(C(=O)/C(C#N)=C/c2cccc(Br)n2)C3C)CC1 (mixture of isomers) [Compound B96, (E/Z)-3-(6-bromopyridin-2-yl)-2-(5-((4-(2,6-dimethoxy-4-(6-methyl-7-oxo-6,7-dihydro-1H-pyrazolo[3,4-c]pyridin-4-yl)benzyl)piperazin-1-yl)methyl)-1-methyl-1,2,3,4-tetrahydroisoquinoline-2-carbonyl)acrylonitrile] | 1.25 to 10 nM | 40 to 70% | 
4 | COc1cc(-c2cn(C)c(=O)c(C)c2C)cc(OC)c1CN1CCN(Cc2cccc3c2CCN(C(=O)C(C#N)=Cc2cccc(Br)n2)C3C)C(C)(C)C1 (mixture of isomers) [Compound B99, (E/Z)-3-(6-bromopyridin-2-yl)-2-(5-((4-(2,6-dimethoxy-4-(1,4,5-trimethyl-6-oxo-1,6-dihydropyridin-3-yl)benzyl)-2,2-dimethylpiperazin-1-yl)methyl)-1-methyl-1,2,3,4-tetrahydroisoquinoline-2-carbonyl)acrylonitrile] | 25 to 1000 nM |  | + (+ = >40% and <70%)
5 | COc1cc(-c2cn(C)c(=O)c(C)c2C)cc(OC)c1CN1CCN(c2cccc(C3CCCN3C(=O)/C(C#N)=C/C(C)C)c2)CC1 (mixture of isomers) [Compound B106, (E/Z)-2-(2-(3-(4-(2,6-dimethoxy-4-(1,4,5-trimethyl-6-oxo-1,6-dihydropyridin-3-yl)benzyl)piperazin-1-yl)phenyl)pyrrolidine-1-carbonyl)-4-methylpent-2-enenitrile] | 1.25 to 10 nM | > 75% | 
6 | COc1cc(-c2cn(C)c(=O)c3ccsc23)cc(OC)c1CN1CCN(Cc2cccc3c2CCN(C(=O)/C(C#N)=C/c2cccc(Br)n2)C3C)C2(CC2)C1 (mixture of isomers) [Compound B108, (E/Z)-3-(6-bromopyridin-2-yl)-2-(5-((7-(2,6-dimethoxy-4-(5-methyl-4-oxo-4,5-dihydrothieno[3,2-c]pyridin-7-yl)benzyl)-4,7-diazaspiro[2.5]octan-4-yl)methyl)-1-methyl-1,2,3,4-tetrahydroisoquinoline-2-carbonyl)acrylonitrile] | < 1.25 nM | > 75% | 
7 | COc1cc(-c2cn(C)c(=O)c(C)c2C)cc(OC)c1CN1CCN(Cc2cccc3c2CCN(C(=O)/C(C#N)=C/c2cccc(Br)n2)C3C)C(C)(C)C1 (mixture of isomers) [Compound B109, (E/Z)-3-(6-bromopyridin-2-yl)-2-(5-((4-(2,6-dimethoxy-4-(1,4,5-trimethyl-6-oxo-1,6-dihydropyridin-3-yl)benzyl)-2,2-dimethylpiperazin-1-yl)methyl)-1-methyl-1,2,3,4-tetrahydroisoquinoline-2-carbonyl)acrylonitrile] | 1.25 to 10 nM | > 75% | 

The next lines start with results.

Row | DC50 (Assay protocol 2) | Dmax [1] | Compound | Dmax (Assay protocol 2)
8 | 10 to 25 nM | > 75% | COc1cc(-c2cn(C)c(=O)c(C)c2C)cc(OC)c1CN1CCN(Cc2cccc3c2CCN(C(=O)/C(C#N)=C/C(C)(C)C)C3C)C(C)(C)C1 (mixture of isomers) [Compound B98, (E/Z)-2-(5-((4-(2,6-dimethoxy-4-(1,4,5-trimethyl-6-oxo-1,6-dihydropyridin-3-yl)benzyl)-2,2-dimethylpiperazin-1-yl)methyl)-1-methyl-1,2,3,4-tetrahydroisoquinoline-2-carbonyl)-4,4-dimethylpent-2-enenitrile] | 
9 | 25 to 1000 nM | 70 to 75% | COc1cc(-c2cn(C)c(=O)c(C)c2C)cc(OC)c1CN1C[C@H](C)N(Cc2cccc3c2CCN(C(=O)/C(C#N)=C/C(C)(C)C)C3C)[C@@H](C)C1 (mixture of isomers) [Compound B100, (E/Z)-2-(5-(((2S,6S)-4-(2,6-dimethoxy-4-(1,4,5-trimethyl-6-oxo-1,6-dihydropyridin-3-yl)benzyl)-2,6-dimethylpiperazin-1-yl)methyl)-1-methyl-1,2,3,4-tetrahydroisoquinoline-2-carbonyl)-4,4-dimethylpent-2-enenitrile] | 
10 | 1.25 to 10 nM | 40 to 70% | COc1cc(-c2cn(C)c(=O)c(C)c2C)cc(OC)c1CN1CC2CCC1CN2Cc1cccc2c1CCN(C(=O)/C(C#N)=C/C(C)(C)C)C2C (mixture of isomers) [Compound B101, (E/Z)-2-(5-((5-(2,6-dimethoxy-4-(1,4,5-trimethyl-6-oxo-1,6-dihydropyridin-3-yl)benzyl)-2,5-diazabicyclo[2.2.2]octan-2-yl)methyl)-1-methyl-1,2,3,4-tetrahydroisoquinoline-2-carbonyl)-4,4-dimethylpent-2-enenitrile] | 
11 | 25 to 1000 nM | > 75% | COc1cc(-c2cn(C)c(=O)c(C)c2C)cc(OC)c1CN1CCN(Cc2cccc3c2CCN(C(=O)/C(C#N)=C/C(C)(C)C)C3C)[C@@H](C)C1 (mixture of isomers) [Compound B102] | 
12 | 1.25 to 10 nM | > 75% | COc1cc(-c2cn(C)c(=O)c(C)c2C)cc(OC)c1CN1CCN(Cc2cccc3c2CCN(C(=O)/C(C#N)=C/C(C)(C)C)C3C)CC12CC2 (mixture of isomers) [Compound B103, (E/Z)-2-(5-((4-(2,6-dimethoxy-4-(1,4,5-trimethyl-6-oxo-1,6-dihydropyridin-3-yl)benzyl)-4,7-diazaspiro[2.5]octan-7-yl)methyl)-1-methyl-1,2,3,4-tetrahydroisoquinoline-2-carbonyl)-4,4-dimethylpent-2-enenitrile] | 
13 | < 1.25 nM | > 75% | COc1cc(-c2cn(C)c(=O)c3[nH]ncc23)cc(OC)c1CN1CCN(Cc2cccc3c2CCN(C(=O)/C(C#N)=C/C(C)(C)C)C3C)C2(CC2)C1 (mixture of isomers) [Compound B104, (E/Z)-2-(5-((7-(2,6-dimethoxy-4-(6-methyl-7-oxo-6,7-dihydro-1H-pyrazolo[3,4-c]pyridin-4-yl)benzyl)-4,7-diazaspiro[2.5]octan-4-yl)methyl)-1-methyl-1,2,3,4-tetrahydroisoquinoline-2-carbonyl)-4,4-dimethylpent-2-enenitrile] | 
14 | < 1.25 nM | > 75% | COc1cc(-c2cn(C)c(=O)c3ccsc23)cc(OC)c1CN1CCN(Cc2cccc3c2CCN(C(=O)/C(C#N)=C/C(C)(C)C)C3C)C2(CC2)C1 (mixture of isomers) [Compound B107, (E/Z)-2-(5-((7-(2,6-dimethoxy-4-(5-methyl-4-oxo-4,5-dihydrothieno[3,2-c]pyridin-7-yl)benzyl)-4,7-diazaspiro[2.5]octan-4-yl)methyl)-1-methyl-1,2,3,4-tetrahydroisoquinoline-2-carbonyl)-4,4-dimethylpent-2-enenitrile] | 

Source: patent US20260092061A1, “COMPOUNDS FOR TARGETED PROTEIN DEGRADATION” (Amphista Therapeutics Limited, priority 2022, published 2026)
